Source: ChEMBL document CHEMBL1128957, “In vivo potent antifilarial -carbolines” (1996)
Calls of active or inactive are those of the source. No cut-off for these calls is given here.

Columns and labels:
[1] = test system: Rattus norvegicus; assay: In vivo macrofilaricidal activity against Litomosoides carinii in cotton rats at a dose of 30 mg/kg for 5 days administered i.p.; type: functional; conditions: route intraperitoneal
[2] = test system: Rattus norvegicus; assay: In vivo microfilaricidal activity against Litomosoides carinii in cotton rats at a dose of 30 mg/kg for 5 days administered i.p.: Inactive; type: functional, organism-based; design: dose 30 mg/kg
[3] = organism: Rattus norvegicus; assay: Percentage of sterilization of surviving female worm Acanthocheilonema viteae in Mastomys natalensis: Inactive; type: functional, organism-based
[4] = test system: Rattus norvegicus; assay: In vivo macrofilaricidal activity against A. viteae in Mastomys natalensis at a dose of 50 mg/kg for 5 days administered i.p.: Inactive; type: functional, organism-based; design: dose 50 mg/kg
[5] = organism: Rattus norvegicus; assay: Percentage of sterilization of surviving female worm Acanthocheilonema viteae in Mastomys natalensis; type: functional
[6] = test system: Rattus norvegicus; assay: In vivo macrofilaricidal activity against Litomosoides carinii in cotton rats at a dose of 30 mg/kg for 5 days administered i.p.: Inactive; type: functional, organism-based; design: dose 30 mg/kg
[7] = test system: Rattus norvegicus; assay: In vivo macrofilaricidal activity against Acanthocheilonema viteae in Mastomys natalensis at a dose of 50 mg/kg for 5 days administered i.p.; type: functional; conditions: route intraperitoneal
[8] = test system: Rattus norvegicus; assay: In vivo microfilaricidal activity against A. viteae in Mastomys natalensis at a dose of 50 mg/kg for 5 days administered i.p.: Inactive; type: functional, organism-based; design: dose 50 mg/kg
[9] = test system: Rattus norvegicus; assay: In vivo macrofilaricidal activity against Litomosoides carinii in cotton rats at a dose of 6 mg/kg for 5 days administered i.p.: Inactive; type: functional, organism-based; design: dose 6 mg/kg
[10] = test system: Rattus norvegicus; assay: In vivo macrofilaricidal activity against A. viteae in Mastomys natalensis at a dose of 350 mg/kg for 5 days administered i.p.: Inactive; type: functional, organism-based; design: dose 350 mg/kg
[11] = test system: Rattus norvegicus; assay: In vivo microfilaricidal activity against Litomosoides carinii in cotton rats at a dose of 30 mg/kg for 5 days administered i.p.; type: functional; conditions: route intraperitoneal
[12] = organism: Rattus norvegicus; assay: Percentage of sterilization of surviving female worm Acanthocheilonema viteae: Inactive; type: functional, organism-based

Row | SMILES | Death [1] | Death [2] | Activity [3] | Death [4] | Death [6] | Death [7] | Death [8] | also measured
1 | COC(=O)C1NCCc2c1[nH]c1ccccc21 (stereo not given) | 81% | inactive | inactive | inactive | – | – | – | –
2 | NC(=O)c1nccc2c1[nH]c1ccccc12 | – | inactive | – | – | inactive | 50% | – | Activity [5]: 100
3 | NC(=O)C1NCCc2c1[nH]c1ccccc21 (stereo not given) | – | inactive | inactive | – | inactive | 84% | inactive | –
4 | CCN(CC)C(=O)N1CCN(C)CC1.O=C(O)CC(O)(CC(=O)O)C(=O)O [DIETHYLCARBAMAZINE CITRATE] | – | – | inactive | – | – | – | – | Death [9]: inactive; Death [10]: inactive
5 | N#Cc1[nH]ccc2c3ccccc3nc1-2 | 78% | – | inactive | – | – | 50% | inactive | Death [11]: 59%
6 | COC(=O)c1nccc2c1[nH]c1ccccc12 | – | inactive | – | inactive | inactive | – | – | Activity [12]: inactive
